Experiments:
[1] = system: brains, heart, liver, muscle, and DRG of the NHPs; experiment: Maturation of TTM-001 and TTM-002 capsids, NGS enrichment in NHP tissues; type: in vivo; conditions: relative to AAV9 control
Summary of the method: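 Variants carry mutations within and flanking the loop IV peptide insert: positions 450–466 were triplet-randomized, while positions 449–466 received low-frequency point mutations. The combined pool went into two NHPs, and each peptide was scored by NGS enrichment ratio against AAV9.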

brain = experiment: Matured TTM-001 and TTM-002 variants, NGS enrichment in mouse brain; type: in vivo, mice; conditions: relative to AAV9 control
[2] = NGS fold-enrichment, DRG of NHPs
[3] = NGS fold-enrichment, RNA, brain of NHPs
[4] = NGS fold-enrichment, heart of NHPs
[5] = NGS fold-enrichment, liver DNA of NHPs
[6] = NGS fold-enrichment, liver RNA of NHPs
[7] = NGS fold-enrichment, muscle of NHPs
[8] = NGS fold-enrichment, brain of mice
[9] = NGS fold-enrichment of matured AAV capsid variants, NHP brain, RNA

Sequence	Fold Enrichment relative to AAV9, Brain (NHP) [1, 9] [fold]	Fold Enrichment relative to AAV9, DRG (NHP) ([1]; NHP DRG) [fold]	Fold Enrichment relative to AAV9, Heart (NHP) ([1]; NHP heart) [fold]	Fold Enrichment relative to AAV9, Liver DNA (NHP) ([1]; NHP liver, DNA) [fold]	Fold Enrichment relative to AAV9, Liver RNA (NHP) ([1]; NHP liver, RNA) [fold]	Fold Enrichment relative to AAV9, Muscle (NHP) ([1]; NHP muscle) [fold]	Fold Enrichment relative to AAV9, Brain (Mouse) (brain; mouse brain) [fold]	also measured
KTINGSGSPHSKAQPPAT								Fold Enrichment relative to AAV9, DRG (NHP) [1, 2]: 0.048 fold; Fold Enrichment relative to AAV9, Brain (NHP) [1, 3]: 63.510 fold; Fold Enrichment relative to AAV9, Heart (NHP) [1, 4]: 0.030 fold; Fold Enrichment relative to AAV9, Liver DNA (NHP) [1, 5]: 0.302 fold; Fold Enrichment relative to AAV9, Liver RNA (NHP) [1, 6]: 0.126 fold; Fold Enrichment relative to AAV9, Muscle (NHP) [1, 7]: 0.031 fold; Fold Enrichment relative to AAV9, Brain (Mouse) (brain; [8]): 117.453 fold
KTINGSGSPHSKAQRDIT	52.415	0.098	0.000	0.605	1.784	0.008	88.122	
KTINGSGSPHSKAQRDQT	51.897	0.069	0.014	0.554	0.867	0.040	102.317	
KTINGSGSPHSKAQREMT	51.076	0.000	24.900	0.476	1.564	143.49	70.961	
KTINGSGSPHSKAQRMNT	50.686	0.000	108.747	0.264	0.943	0.019	97.975	
KTINGSGSPHSKAQRMST	58.435	0.192	0.037	0.882	1.707	0.000	53.414	
KTINGSGSPHSKAQRTCT	57.863	0.000	0.140	1.716	1.855	0.129	90.146	
KTINGSGSPHSKAQRTMT								Fold Enrichment relative to AAV9, Brain (NHP) ([1]; NGS fold-enrichment of RNA, NHP brain): 80.388 fold; Fold Enrichment relative to AAV9, DRG (NHP) [1, 2]: 0.000 fold; Fold Enrichment relative to AAV9, DRG (NHP) ([1]; NGS fold-enrichment, NHP DRG): 0.000 fold; Fold Enrichment relative to AAV9, Heart (NHP) ([1]; NGS fold-enrichment, NHP heart): 0.022 fold; Fold Enrichment relative to AAV9, Liver DNA (NHP) ([1]; NGS fold-enrichment, NHP liver DNA): 1.025 fold; Fold Enrichment relative to AAV9, Liver RNA (NHP) ([1]; NGS fold-enrichment, NHP liver RNA): 1.812 fold; Fold Enrichment relative to AAV9, Muscle (NHP) ([1]; NGS fold-enrichment, NHP muscle): 0.170 fold; Fold Enrichment relative to AAV9, Brain (NHP) [1, 3]: 80.388 fold; Fold Enrichment relative to AAV9, Heart (NHP) [1, 4]: 0.022 fold; Fold Enrichment relative to AAV9, Liver DNA (NHP) [1, 5]: 1.025 fold; Fold Enrichment relative to AAV9, Liver RNA (NHP) [1, 6]: 1.812 fold; Fold Enrichment relative to AAV9, Muscle (NHP) [1, 7]: 0.170 fold; Fold Enrichment relative to AAV9, Brain (Mouse) (brain; [8]): 100.248 fold; Fold Enrichment relative to AAV9, Brain (Mouse) (brain; NGS fold-enrichment, mouse brain): 100.248 fold
KTINGSGSPHSKAQSAHT	51.569	0.068	0.070	0.249	0.589	0.000	79.498	
KTINGSGSPHSKAQSKVT	56.373	0.000	0.050	0.390	1.021	0.014	76.115	
KTINGSGSPHSKAQSLQI	53.778	0.000	0.186	0.047	0.022	0.000	51.543	
KTINGSGSPHSKAQSPPT								Fold Enrichment relative to AAV9, DRG (NHP) [1, 2]: 0.069 fold; Fold Enrichment relative to AAV9, Brain (NHP) [1, 3]: 71.632 fold; Fold Enrichment relative to AAV9, Heart (NHP) [1, 4]: 0.047 fold; Fold Enrichment relative to AAV9, Liver DNA (NHP) [1, 5]: 0.425 fold; Fold Enrichment relative to AAV9, Liver RNA (NHP) [1, 6]: 0.179 fold; Fold Enrichment relative to AAV9, Muscle (NHP) [1, 7]: 0.274 fold; Fold Enrichment relative to AAV9, Brain (Mouse) (brain; [8]): 97.111 fold
KTINGSGSPHSKAQSQQL								Fold Enrichment relative to AAV9, DRG (NHP) [1, 2]: 0.000 fold; Fold Enrichment relative to AAV9, Brain (NHP) [1, 3]: 70.539 fold; Fold Enrichment relative to AAV9, Heart (NHP) [1, 4]: 0.000 fold; Fold Enrichment relative to AAV9, Liver DNA (NHP) [1, 5]: 0.041 fold; Fold Enrichment relative to AAV9, Liver RNA (NHP) [1, 6]: 0.000 fold; Fold Enrichment relative to AAV9, Muscle (NHP) [1, 7]: 0.000 fold; Fold Enrichment relative to AAV9, Brain (Mouse) (brain; [8]): 51.126 fold
KTINGSGSPHSKAQSTMT	51.249	0.018	0.002	0.341	0.321	0.002	73.213	
KTINGSGSPHSKAQSVHT	53.226	0.000	0.004	0.217	0.446	0.000	76.110	
KTINGSGSPHSKAQTPPT								Fold Enrichment relative to AAV9, DRG (NHP) [1, 2]: 0.010 fold; Fold Enrichment relative to AAV9, Brain (NHP) [1, 3]: 64.657 fold; Fold Enrichment relative to AAV9, Heart (NHP) [1, 4]: 0.015 fold; Fold Enrichment relative to AAV9, Liver DNA (NHP) [1, 5]: 0.207 fold; Fold Enrichment relative to AAV9, Liver RNA (NHP) [1, 6]: 0.200 fold; Fold Enrichment relative to AAV9, Muscle (NHP) [1, 7]: 0.014 fold; Fold Enrichment relative to AAV9, Brain (Mouse) (brain; [8]): 54.179 fold
KTINGSGSPHSKAQVGHT	52.624	0.000	0.000	0.192	0.535	0.006	106.448	
KTINGSGSPHSKAQVPAT	54.475	0.000	0.002	0.223	0.782	0.000	137.743	
KTINGSGSPHSKAQVPPT	57.316	0.000	0.012	0.200	0.257	0.000	90.220	
KTINGSGSPHSKAQVPST	54.366	0.000	1.001	0.139	0.202	0.000	117.223	
KTINGSGSPHSKAQVQQI	57.308	0.000	1.113	0.113	0.000	0.000	61.957	
KTINGSGSPHSKAQVRNT	52.735	0.000	0.101	0.423	0.230	0.011	68.893	
